Results: patent US7348332B2, “(3,4-dihydro-quinazolin-2-yl)-indan-1-yl-amines” (Hoffmann-La Rochse Inc., priority 2005, dated 2008)

Molecular target: T1, recombinant human 5-HT5A receptor (Homo sapiens, UniProt P47898)
T1 construct: expressed in transfected cells; host or cells: HEK-EBNA (Human Embryonic Kidney-EBNA) cells, transient cDNA expression; membranes
Test: [3H]LSD radioligand binding assay, membranes from HEK-EBNA cells transiently expressing 5-HT5A receptors
Conditions: [3H]LSD approximately 1 nM; HEK-EBNA cell membranes; SPA beads; 120 min at room temperature; Ki from IC50 by Cheng-Prussoff equation
Experimental: A [^3H]LSD radioligand binding assay was used to determine the affinity of the compounds for the recombinant human 5-HT5A receptor, in membranes from transiently (cDNA) expressed 5-HT5A receptors in Human Embryonic Kidney-EBNA (HEK-EBNA) cells. Assay buffer consisted of Tris (50 mM) buffer containing 1 mM EGTA, 10 mM MgCl2 (pH 7.4) and 10 μM pargyline. The binding assay was carried out in 96-well-plates in the presence of [^3H]LSD (approximately 1 nM), approximately 2 μg/well of membrane protein, and 0.5 mg of Ysi-poly-1-lysine SPA beads in a final volume of 200 μl of buffer. Non-specific binding was defined using methiothepin 2 μM. Compounds were tested at 10 concentrations. All assays were conducted in duplicate and repeated at least two times. Assay plates were incubated for 120 min at room temperature before centrifugation. Bound ligand was determined using a Packard Topcount scintillation counter. IC50 values were calculated using a non-linear curve fitting program and Ki values calculated using the Cheng-Prussoff equation.

T1 sequence (P47898 whole entry): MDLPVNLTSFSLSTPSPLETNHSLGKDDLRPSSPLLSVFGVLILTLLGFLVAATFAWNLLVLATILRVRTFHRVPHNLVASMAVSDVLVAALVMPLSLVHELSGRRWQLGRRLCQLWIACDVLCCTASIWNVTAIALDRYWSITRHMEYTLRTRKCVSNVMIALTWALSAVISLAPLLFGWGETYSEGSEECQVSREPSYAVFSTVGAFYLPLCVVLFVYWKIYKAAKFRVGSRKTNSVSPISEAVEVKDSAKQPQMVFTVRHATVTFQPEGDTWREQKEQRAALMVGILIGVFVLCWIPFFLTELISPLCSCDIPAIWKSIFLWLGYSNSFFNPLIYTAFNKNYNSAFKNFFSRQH

| SMILES | Ki |
| --- | --- |
| COc1ccc2c(c1)CNC(NC1CCc3ccccc31)=N2 (centres unmarked) [Example 11, Indan-1-yl-(6-methoxy-3,4-dihydro-quinazolin-2-yl)-amine] | 125 nM |
| Clc1ccc2c(c1Cl)CNC(NC1CCc3ccccc31)=N2 (centres unmarked) [Example 5, (5,6-Dichloro-3,4-dihydro-quinazolin-2-yl)-indan-1-yl-amine] | 39 nM |
| c1ccc2c(c1)CC[C@H]2NC1=Nc2ccccc2C(c2ccsc2)N1 (stereo partly drawn) [Example 23, (R)-Indan-1-yl-(4-thiophen-3-yl-3,4-dihydro-quinazolin-2-yl)-amine] | 133 nM |
| FC(F)(F)c1ccc2c(c1)N=C(NC1CCc3ccccc31)NC2 (centres unmarked) [Example 13, Indan-1-yl-(7-trifluoromethyl-3,4-dihydro-quinazolin-2-yl)-amine] | 260 nM |
| Clc1ccc2c(c1)C(c1ccccc1Cl)NC(NC1CCc3ccccc31)=N2 (stereo in doubt) [Example 21, [6-Chloro-4-(2-chloro-phenyl)-3,4-dihydro-quinazolin-2-yl]-(S)-indan-1-yl-amine] | 595 nM |
| c1ccc2c(c1)CNC(N[C@H]1CCc3ccccc31)=N2 [Example 17, (3,4-Dihydro-quinazolin-2-yl)-(S)-indan-1-yl-amine] | 350 nM |
| Clc1ccc2c(c1)C(c1ccccc1Cl)NC(NC1CCc3ccccc31)=N2 (stereo in doubt) [Example 22, [6-Chloro-4-(2-chloro-phenyl)-3,4-dihydro-quinazolin-2-yl]-(R)-indan-1-yl-amine] | 655 nM |
| Cc1cccc2c1N=C(NC1CCc3ccccc31)NC2 (centres unmarked) [Example 3, Indan-1-yl-(8-methyl-3,4-dihydro-quinazolin-2-yl)-amine] | 32 nM |
| Cc1cccc2c1CNC(NC1CCc3ccccc31)=N2 (centres unmarked) [Example 8, Indan-1-yl-(5-methyl-3,4-dihydro-quinazolin-2-yl)-amine] | 55 nM |
| Clc1ccc2c(c1)N=C(NC1CCc3ccccc31)NC2 (centres unmarked) [Example 12, (7-Chloro-3,4-dihydro-quinazolin-2-yl)-indan-1-yl-amine] | 174 nM |
| c1ccc2c(c1)CC[C@@H]2NC1=Nc2ccccc2C(c2ccsc2)N1 (stereo partly drawn) [Example 24, (S)-Indan-1-yl-(4-thiophen-3-yl-3,4-dihydro-quinazolin-2-yl)-amine] | 293 nM |
| Cc1ccc2c(c1)CNC(NC1CCc3ccccc31)=N2 (centres unmarked) [Example 7, Indan-1-yl-(6-methyl-3,4-dihydro-quinazolin-2-yl)-amine] | 50 nM |
| Clc1ccc(Cl)c(C2NC(NC3CCc4ccccc43)=Nc3ccccc32)c1 (stereo in doubt) [Example 19, [4-(2,5-Dichloro-phenyl)-3,4-dihydro-quinazolin-2-yl]-(S)-indan-1-yl-amine] | 550 nM |
| Clc1ccc2c(c1)C(c1ccccc1)NC(NC1CCc3ccccc31)=N2 (centres unmarked) [Example 18, (6-Chloro-4-phenyl-3,4-dihydro-quinazolin-2-yl)-indan-1-yl-amine] | 410 nM |
| Clc1ccc(Cl)c(C2NC(NC3CCc4ccccc43)=Nc3ccccc32)c1 (stereo in doubt) [Example 20, [4-(2,5-Dichloro-phenyl)-3,4-dihydro-quinazolin-2-yl]-(R)-indan-1-yl-amine] | 550 nM |
| Cc1noc(C)c1C1NC(N[C@H]2CCc3ccccc32)=Nc2ccccc21 (stereo partly drawn) [Example 26, [4-(3,5-Dimethyl-isoxazol-4-yl)-3,4-dihydro-quinazolin-2-yl]-(S)-indan-1-yl-amine] | 1200 nM |
| Clc1cccc2c1CNC(NC1CCc3ccccc31)=N2 (centres unmarked) [Example 2, (5-Chloro-3,4-dihydro-quinazolin-2-yl)-indan-1-yl-amine] | 32 nM |

Further lines, results first:

| Ki | SMILES |
| --- | --- |
| 310 nM | c1ccc(C2NC(NC3CCc4ccccc43)=Nc3ccccc32)cc1 (centres unmarked) [Example 14, Indan-1-yl-(4-phenyl-3,4-dihydro-quinazolin-2-yl)-amine] |
| 71 nM | CC1NC(NC2CCc3ccccc32)=Nc2cc(Cl)c(Cl)cc21 (centres unmarked) [Example 10, (6,7-Dichloro-4-methyl-3,4-dihydro-quinazolin-2-yl)-indan-1-yl-amine] |
| 80 nM | CC1NC(NC2CCc3ccccc32)=Nc2ccccc21 (centres unmarked) [Example 9, Indan-1-yl-(4-methyl-3,4-dihydro-quinazolin-2-yl)-amine] |
| 48 nM | Fc1cccc2c1CNC(NC1CCc3ccccc31)=N2 (centres unmarked) [Example 6, (5-Fluoro-3,4-dihydro-quinazolin-2-yl)-indan-1-yl-amine] |
| 35 nM | Fc1ccc2c(c1)CNC(NC1CCc3ccccc31)=N2 (centres unmarked) [Example 4, (6-Fluoro-3,4-dihydro-quinazolin-2-yl)-indan-1-yl-amine] |
| 25 nM | c1ccc2c(c1)CNC(N[C@@H]1CCc3ccccc31)=N2 [Example 1, (3,4-Dihydro-quinazolin-2-yl)-(R)-indan-1-yl-amine] |
| 863 nM | Cc1noc(C)c1C1NC(N[C@@H]2CCc3ccccc32)=Nc2ccccc21 (stereo partly drawn) [Example 25, [4-(3,5-Dimethyl-isoxazol-4-yl)-3,4-dihydro-quinazolin-2-yl]-(R)-indan-1-yl-amine] |
| 350 nM | COc1cc2c(cc1OC)N=C(NC1CCc3ccccc31)NC2 (centres unmarked) [Example 16, (6,7-Dimethoxy-3,4-dihydro-quinazolin-2-yl)-indan-1-yl-amine] |
| 310 nM | COc1ccc2c(c1)N=C(NC1CCc3ccccc31)NC2 (centres unmarked) [Example 15, Indan-1-yl-(7-methoxy-3,4-dihydro-quinazolin-2-yl)-amine] |
